Consider one substance from patent publication US20050209151A1, “Use of peptides” (priority 1999, published 2005).

Test [1] relates to ACTH concentration in blood. Nature of the test: ACTH concentration in blood after intraventricular administration of PrRP-31. The following applies: PrRP-31 1, 3 or 10 nmol intraventricular. The class given is in vivo, Wistar rats. How it is done: (§1) Adult male Wistar rats (body weight 350 to […] at surgery) were anesthetized with intraperitoneal administration of 50 mg/kg pentobarbital and immobilized in stereotaxic instruments. The incisor bar was set 3.3 mm below the interaural line. The skull was exposed, and a hole was drilled with a dental drill to implant a guide cannula AG-12 (inside diameter of 0.4 mm, outside diameter of 0.5 mm, by Eicom) in the third ventricle. Anchor screws were implanted in four surrounding locations. The tip of the stainless steel guide cannula AG-12 was inserted into position in the upper part of the third ventricle. The stereotaxic coordinates were AP: +7.1 mm, L: 0.0 mm, H: +2.0 mm, from the interaural line, according to the atlas of Paxinos and Watson (1986). The guide cannula was secured to the skull with instant adhesive, dental cement, and the anchor screws. A stainless-steel dummy cannula AD-12 (0.35 mm outside diameter, by Eicom) was then inserted into the guide cannula and secured with a cap nut (by Eicom). The rats were post-operatively housed in individual cages.
(§2) The animals were allowed to recover for about 1 week after the implantation of the guide cannulas, and blood samples were taken as they were allowed to move freely. The rats were then anesthetized with intraperitoneal administration of 50 mg/kg pentobarbital. […]

For test [2], the system named is β-endorphin concentration in blood. Nature of the test: β-endorphin concentration in blood after intraventricular administration of PrRP-31. The class given is in vivo, Wistar rats. To be noted: PrRP-31 1, 3 or 10 nmol intraventricular. How it is done:
as §1, §2

Where [3] appears, read: plasma radioimmunoassay, 0-60 min.

Where no end group is shown, it is not given here.

For the substance “PrRP-31: amide form of the peptide consisting of the amino acid sequence in SEQ ID NO. 32 (SRTHRHSMEIRTPDINPAWYASRGIRPVGRF-NH2)”, in test [1], the “time of peak ACTH concentration in blood after dosing” value stood at 15 min. Besides, the “ACTH concentration in blood compared to the control group” value in test [1] (setting [3]) is “higher concentration-dependent increases”. For the same substance, the “time of peak β-endorphin concentration in blood after dosing” value in test [2] stood at 15 min. Also, the “β-endorphin concentration in blood compared to the control group” value in test [2] (setting [3]) is “higher concentration-dependent increases”.
